In patent US4731486A, “Hydroformylation using low volatile phosphine ligands” (Union Carbide Corporation, priority 1986, dated 1988):

Columns and labels:
[1] = Solubility of TPPMS-Na in nonanal with various added solubilizing agents; format: physicochemical
Method: The solubility of a monosulfonated triphenylphosphine sodium salt ligand (TPPMS-Na) having the formula [drawing 28] was measured in C9 aldehyde (nonanal) in the presence of various added solubilizing agents and various mixtures of such agents for the ligand. […] The solubilizing agents and their mixtures were employed in a 1:2 weight:weight ratio with the nonanal.

[2] = Batch hydroformylation of propylene in stirred autoclave (Examples 1, 2, 11, 14, 19)
[3] = Solubility of metal salt ligands in different aldehydes; format: physicochemical
[4] = Batch hydroformylation of tetradecene-1 (Example 14); settings: Texanol/TPEG-990 3:1; 100° C.; 300 ppm Rh; 8.7 wt. % ligand; 75 psia 4:1 H2:CO
Method: (§1) Each rhodium catalytic precursor solution so prepared was then employed to hydroformylate propylene in a magnetically stirred, 100 mL capacity, stainless steel autoclave which was attached to a gas manifold for introducing gases to the desired partial pressures. The autoclave was also equipped with a pressure calibrator for determining reaction pressure to ±0.01 psia. and a platinum resistance thermometer for determining reactor solution temperatures to ±0.10° C. The reactor was heated externally by two 300 watt heating bands. The reactor solution temperature was controlled by a platinum resistance sensor connected to an external proportional temperature controller for controlling the temperature of the external band heaters.
In each non-aqueous hydroformylation reaction, about 15 milliliters (about 14 grams) of the rhodium catalytic precursor solution so prepared was charged to the autoclave reactor under nitrogen and heated to the reaction temperature employed (as given in Table 1 below). […]
The hydroformylation reaction rate in gram moles per liter per hour of C4 aldehydes produced was determined from sequential 5 psia. pressure drops in the reactor spanning the nominal operating pressure in the reactor, while the mole ratio of linear (n-butyraldehyde) to branched (2-methylpropionaldehyde) product was measured by gas chromatography and the results are given in Table 1 below. […]

[5] = Solubility of TPPMS-Na in various aldehydes with solubilizing agent mixture; format: physicochemical; settings: TERGITOL 24-L-75N/CARBOWAX TPEG-900 (4:1)
From the text: The solubilizing agent mixture was employed in a 1:2 weight:weight ratio with the various aldehydes.

[6] = Batch hydroformylation of butene-1 (Examples 14, 19); settings: 100° C., 300 ppm Rh
Method: as §1
In each non-aqueous hydroformylation reaction, about 15 milliliters (about 14 grams) of the rhodium catalytic precursor solution so prepared was charged to the autoclave reactor under nitrogen and heated to the reaction temperature employed (as given in Table 1 below). The reactor was then vented down to 5 psig. and a premixed gas mixture of 1:1:1 carbon monoxide:hydrogen:propylene was introduced into the reactor via the gas manifold (partial pressures given in Table 1) and the propylene so hydroformylated.
The hydroformylation reaction rate in gram moles per liter per hour of C4 aldehydes produced was determined from sequential 5 psia. pressure drops in the reactor spanning the nominal operating pressure in the reactor, while the mole ratio of linear (n-butyraldehyde) to branched (2-methylpropionaldehyde) product was measured by gas chromatography and the results are given in Table 1 below.
The same procedure and conditions employed in Example 1 of preparing various rhodium catalytic precursor solutions using rhodium dicarbonyl acetylacetonate, about a 3:1 (wt.:wt. ratio) mixture of Texanol® and CARBOWAX® TPEG-990 (about 25 wt. %) as the solubilizing agent, and a monosulfonated triphenylphosphine sodium salt ligand having the formula [drawing 26] and hydroformylating an olefin was repeated employing the various rhodium complex catalyst precursor solutions and using different alpha olefins as the hydroformylation feedstocks and the reaction conditions as shown in Table 14 below.
A comparison of the catalytic activity of aqueous and non-aqueous solutions of monosulfonated triphenylphosphine sodium salt ligand promoted catalysts in hydroformylating various molecular weight alphe-olefins was determined as follows.
The same procedure and conditions employed in Example 1 of preparing rhodium catalytic precursor solutions, using rhodium dicarbonyl acetylacetonate, monosulfonated triphenylphosphine sodium salt having the formula as shown in Example 4 in either a non-aqueous organic solubilizing agent solution or water, as given in Table 19 below, and hydroformylating the various alpha-olefins was repeated employing the various rhodium complex precursor solutions and hydroformylation reaction conditions as shown in Table 19 below. Both the aqueous and non-aqueous hydroformylation reactions were conducted under identical conditions with regard to temperature, rhodium and ligand concentration, hydrogen and carbon monoxide partial pressure and olefin concentration.

[7] = TERGITOL 15-S-3/CARBOWAX PEG 600/Dimethyl Sulfoxide (4:1:1), 100° C., 200 ppm Rh, 90 psia 1:1:1 H2:CO:C3H6
[8] = TERGITOL 15-S-7/CARBOWAX TPEG 990/N-Methyl Pyrolidone (4:1:1), 100° C., 200 ppm Rh, 90 psia 1:1:1 H2:CO:C3H6
[9] = TERGITOL 15-S-7, 100° C., 200 ppm Rh, 90 psia 1:1:1 H2:CO:C3H6
[10] = TERGITOL 24-L-75N/NIAX PPG 1025 (4:1), 100° C., 200 ppm Rh, 90 psia 1:1:1 H2:CO:C3H6
[11] = TERGITOL NP-4/CARBOWAX TPEG 990 (4:1), 100° C., 200 ppm Rh, 90 psia 1:1:1 H2:CO:C3H6
[12] = TERGITOL NP-9, 100° C., 200 ppm Rh, 90 psia 1:1:1 H2:CO:C3H6
[13] = Texanol/TPEG-990 3:1, 90° C., 300 ppm Rh, 8.7 wt. % ligand, 90 psia 1:1:1 H2:CO:C3H6
[14] = aqueous (water as solvent), 100° C., 300 ppm Rh, 90 psia 1:1:1 H2:CO:Propylene
[15] = non-aqueous (Texanol/Carbowax TPEG990 2.6:1), 100° C., 300 ppm Rh, 90 psia 1:1:1 H2:CO:Propylene
[16] = Texanol/TPEG-990 3:1, 8.7 wt. % ligand, 75 psia 4:1 H2:CO
[17] = aqueous (water as solvent), 90 psia 1:1 H2:CO
[18] = non-aqueous (Texanol/Carbowax TPEG990 2.6:1), 90 psia 1:1 H2:CO

O=S(=O)([O-])c1cccc(P(c2ccccc2)c2ccccc2)c1.[Na+]
TPPMS-Na Solubility ([1]; NIAX PPG-1025, 25 deg. C.): < 2 Weight Percent | TPPMS-Na Solubility ([1]; NIAX PPG-1025, 100 deg. C.): 2 Weight Percent | TPPMS-Na Solubility ([1]; TERGITOL 15-S-3/CARBOWAX PEG 600 (4:1), 25 deg. C.): 2 Weight Percent | TPPMS-Na Solubility ([1]; TERGITOL 15-S-3/CARBOWAX PEG 600 (4:1), 100 deg. C.): > 10 Weight Percent | TPPMS-Na Solubility ([1]; TERGITOL 15-S-3/CARBOWAX PEG 600/Methanol (4:1:1), 25 deg. C.): > 6 Weight Percent | TPPMS-Na Solubility ([1]; TERGITOL 15-S-3, 25 deg. C.): 2 Weight Percent | TPPMS-Na Solubility ([1]; TERGITOL 15-S-3, 100 deg. C.): 8 Weight Percent | TPPMS-Na Solubility ([1]; TERGITOL 15-S-7/CARBOWAX TPEG 990 (3:1), 25 deg. C.): 10 Weight Percent | TPPMS-Na Solubility ([1]; TERGITOL 15-S-7/CARBOWAX TPEG 990 (3:1), 100 deg. C.): 8 Weight Percent | TPPMS-Na Solubility ([1]; TERGITOL 15-S-7, 25 deg. C.): 4 Weight Percent | TPPMS-Na Solubility ([1]; TERGITOL 15-S-7, 100 deg. C.): 8 Weight Percent | TPPMS-Na Solubility ([1]; TERGITOL 24-L-15N, 25 deg. C.): 2 Weight Percent | TPPMS-Na Solubility ([1]; TERGITOL 24-L-15N, 100 deg. C.): 8 Weight Percent | TPPMS-Na Solubility ([1]; TERGITOL 24-L-50N/CARBOWAX PEG 600 (4:1), 25 deg. C.): > 10 Weight Percent | TPPMS-Na Solubility ([1]; TERGITOL 24-L-50N/CARBOWAX PEG 600 (4:1), 100 deg. C.): > 10 Weight Percent | TPPMS-Na Solubility ([1]; TERGITOL 24-L-50N, 25 deg. C.): 4 Weight Percent | TPPMS-Na Solubility ([1]; TERGITOL 24-L-50N, 100 deg. C.): 8 Weight Percent | TPPMS-Na Solubility ([1]; TERGITOL 24-L-75N/CARBOWAX TPEG 990 (4:1), 25 deg. C.): 12 Weight Percent | TPPMS-Na Solubility ([1]; TERGITOL 24-L-75N/CARBOWAX TPEG 990 (4:1), 100 deg. C.): 14 Weight Percent | TPPMS-Na Solubility ([1]; TERGITOL 24-L-75N/CARBOWAX TPEG 990/Methanol (4:1:1), 25 deg. C.): > 16 Weight Percent | TPPMS-Na Solubility ([1]; TERGITOL 24-L-75N/NIAX PPG 1025 (2:1), 25 deg. C.): > 10 Weight Percent | TPPMS-Na Solubility ([1]; TERGITOL 24-L-75N/NIAX PPG 1025 (2:1), 100 deg. C.): > 10 Weight Percent | TPPMS-Na Solubility ([1]; TERGITOL 24-L-75N, 25 deg. C.): 6 Weight Percent | TPPMS-Na Solubility ([1]; TERGITOL 24-L-75N, 100 deg. C.): 8 Weight Percent | TPPMS-Na Solubility ([1]; TERGITOL 25-L-5, 25 deg. C.): 4 Weight Percent | TPPMS-Na Solubility ([1]; TERGITOL 25-L-5, 100 deg. C.): 6 Weight Percent | TPPMS-Na Solubility ([1]; TERGITOL 26-L-5, 25 deg. C.): 2 Weight Percent | TPPMS-Na Solubility ([1]; TERGITOL 26-L-5, 100 deg. C.): 6 Weight Percent | TPPMS-Na Solubility ([1]; TERGITOL NP-4/CARBOWAX TPEG 990 (4:1), 25 deg. C.): 8 Weight Percent | TPPMS-Na Solubility ([1]; TERGITOL NP-4/CARBOWAX TPEG 990 (4:1), 100 deg. C.): 10 Weight Percent | TPPMS-Na Solubility ([1]; TERGITOL NP-4, 25 deg. C.): 2 Weight Percent | TPPMS-Na Solubility ([1]; TERGITOL NP-4, 100 deg. C.): 6 Weight Percent | TPPMS-Na Solubility ([1]; TERGITOL NP-9/CARBOWAX PEG 600 (3:1), 25 deg. C.): 10 Weight Percent | TPPMS-Na Solubility ([1]; TERGITOL NP-9/CARBOWAX PEG 600 (3:1), 100 deg. C.): > 10 Weight Percent | TPPMS-Na Solubility ([1]; TERGITOL NP-9/CARBOWAX PEG 600/Methanol (3:1:1), 25 deg. C.): > 12 Weight Percent | TPPMS-Na Solubility ([1]; TERGITOL NP-9, 25 deg. C.): 4 Weight Percent | TPPMS-Na Solubility ([1]; TERGITOL NP-9, 100 deg. C.): 6 Weight Percent | Linear/Branched Aldehyde Mole Ratio ([2]; 200 ppm Rh, about 120 mole equivalents ligand, 100° C., 60 psia 1:1:1 H2:CO:C3H6, Texanol/Carbowax PEG-600 10:1): 6.4 | Reaction Rate (C4 aldehydes) ([2]; 200 ppm Rh, about 120 mole equivalents ligand, 100° C., 60 psia 1:1:1 H2:CO:C3H6, Texanol/Carbowax PEG-600 10:1, average of two runs): 0.28 Gmoles/L/Hr | Linear/Branched Aldehyde Mole Ratio [2, 7]: 5.6 | Reaction Rate (C4 aldehydes) [2, 7]: 0.25 G moles/L/hr | Linear/Branched Aldehyde Mole Ratio [2, 8]: 5.0 | Reaction Rate (C4 aldehydes) [2, 8]: 0.75 G moles/L/hr | Linear/Branched Aldehyde Mole Ratio [2, 9]: 4.7 | Reaction Rate (C4 aldehydes) [2, 9]: 0.49 G moles/L/hr | Linear/Branched Aldehyde Mole Ratio [2, 10]: 5.3 | Reaction Rate (C4 aldehydes) [2, 10]: 0.54 G moles/L/hr | Linear/Branched Aldehyde Mole Ratio [2, 11]: 6.0 | Reaction Rate (C4 aldehydes) [2, 11]: 0.59 G moles/L/hr | Linear/Branched Aldehyde Mole Ratio [2, 12]: 5.1 | Reaction Rate (C4 aldehydes) [2, 12]: 0.67 G moles/L/hr | Linear/Branched Aldehyde Mole Ratio [2, 13]: 5.0 | Reaction Rate [2, 13]: 1.72 G moles/L/hr | Linear/Branched Aldehyde Mole Ratio [2, 14]: 19.3 | Reaction Rate [2, 14]: 0.07 G Moles/L/Hr | Linear/Branched Aldehyde Mole Ratio [2, 15]: 4.8 | Reaction Rate [2, 15]: 2.60 G Moles/L/Hr | Metal Salt Solubility ([3]; Butyraldehyde, 60 °C): 10.0 Wt. % | Metal Salt Solubility ([3]; Heptanal, 80 °C): 0.4 Wt. % | Metal Salt Solubility ([3]; Nonanal, 80 °C): 0.5 Wt. % | Metal Salt Solubility ([3]; Propionaldehyde, 35 °C): 16.3 Wt. % | Metal Salt Solubility ([3]; Tridecanal, 80 °C): 0.5 Wt. % | Metal Salt Solubility ([3]; Valeraldehyde, 80 °C): 5.3 Wt. % | Linear/Branched Aldehyde Mole Ratio [4]: 12.6 | Reaction Rate [4]: 0.65 G moles/L/hr | TPPMS-Na Solubility at 25 deg. C. ([5]; Butyraldehyde): > 20 Weight Percent | TPPMS-Na Solubility at 25 deg. C. ([5]; Heptanal): 18 Weight Percent | TPPMS-Na Solubility at 25 deg. C. ([5]; Nonanal): 12 Weight Percent | TPPMS-Na Solubility at 25 deg. C. ([5]; Tridecanal): 8 Weight Percent | TPPMS-Na Solubility at 25 deg. C. ([5]; Valeraldehyde): > 20 Weight Percent | Linear/Branched Aldehyde Mole Ratio [6, 16]: 12.8 | Reaction Rate [6, 16]: 5.96 G moles/L/hr | Linear/Branched Aldehyde Mole Ratio [6, 17]: 37.1 | Reaction Rate [6, 17]: 0.44 G Moles/L/Hr | Linear/Branched Aldehyde Mole Ratio [6, 18]: 5.1 | Reaction Rate [6, 18]: 6.94 G Moles/L/Hr
